Measurements taken from patent US20160157482A1, “Antimicrobial Compositions Containing Carvacrol and Thymol” (Kemin Industries, Inc., priority 2013, published 2016).
Like-named read-outs stand apart in the source and are kept apart here.

How the values were obtained:
[1] = tested on: Escherichia coli 413-1, ATCC 25922; experiment: Microtiter plate assay, growth inhibition; type: cell-based
Method: (§1) Stock cultures of Escherichia coli 413-1, ATCC 25922, Salmonella Enteritidis, ATCC 13076, Bacillus subtilis PB6 (Kemin Industries) and Lactobacillus johnsonii D115 (Kemin Industries) were cultured from agar plates held at 4° C. and inoculated into tubes of either Tryptic Soy Broth (TSB) or de Man, Rogosa and Sharpe (MRS) broth. The bacteria were incubated aerobically or anaerobically as appropriate at 37° C. for 20-22 h. All microbial cultures used in this work are strains maintained in an in-house culture collection.
(§2) Stock solutions of 1000 ppm each of carvacrol and thymol standards were prepared in sterile TSB to which 0.1% agar was added for stabilization of the oil:water emulsion (Rasooli et al., 2007; Burt, S. and R. Reinders. 2003. Antibacterial activity of selected plant essential oils against Escherichia coli O157:H7. Letters Appl. Microbiol. 36:162-167). Subsequent dilutions and/or combinations of the standard stock solutions were prepared in TSB to achieve the targeted inclusion level of each molecule.
(§3) Stock solutions of 1000 ppm were made of each of the HC and HT extracted oils in sterile TSB or MRS broth to which 0.1% agar was added. Subsequent dilutions and/or combinations of the extracted oil stock solutions were prepared in TSB or MRS to achieve the targeted inclusion level of each molecule.
(§4) The efficacy of carvacrol and thymol in the inhibition of microbial growth was evaluated in a microtiter plate assay measuring the optical density at 620 nm using an Optimax microtiter plate reader (Molecular Devices, Sunnyvale, Calif.). Plates were read kinetically (aerobic organisms) or endpoint (anaerobic organisms) over 20-24 h while maintaining temperature at 35° C. All results reflect the average optical density measurements of four microtiter wells. A 100 uL aliquot of a test organism (1.0E+06 cfu/mL) in sterile saline and a 100 μL aliquot of experimental treatment were dispensed into individual microtiter plate wells. Treatments prepared in TSB were used for E. coli, S. Enteritidis and PB6 while treatments prepared in MRS broth were used for L. johnsonii D115. Positive controls consisted of 100 μL of test organism in sterile saline and 100 μL of sterile TSB or MRS. Negative controls were made of 100 μL of sterile TSB or MRS and 100 μL of sterile saline (no organisms).
(§5) The inhibitory levels of carvacrol and thymol against selected microorganisms were evaluated through several formulation matrices designed to assess the individual molecules as well as combinations of the molecules. Initially, thirteen formulations were prepared according to the incomplete 4×4 matrix design in Table 1 using 0, 125, 250 and 500 ppm each of carvacrol standard and thymol standard to evaluate the inhibitory activity toward selected microorganisms. […]

[2] = tested on: Salmonella Enteritidis, ATCC 13076; experiment: Microtiter plate assay, growth inhibition; type: cell-based; settings: Salmonella enterica, read-out: level needed to inhibit the growth (MIC)
Method: as §1, §2, §3, §4, §5

SMILES	MIC ([1]; ATCC25922, microtiter plate, OD 620 nm, 20-24 h, 35° C., read-out: level needed to inhibit the growth (MIC)) [µg/mL]	MIC ([2]; microtiter plate, OD 620 nm, 20-24 h, 35° C.) [µg/mL]	MIC ([1]; ATCC25922, read-out: level needed to inhibit the growth (MIC)) [µg/mL]	MIC [2] [µg/mL]
Cc1ccc(C(C)C)c(O)c1 [thymol]	125 to 250	125 to 250		
Cc1ccc(C(C)C)cc1O [carvacrol]			125 to 250	125 to 250
